Laboratory results taken from patent EP2292624A1, “Process for the purification of olanzapine” (LEK Pharmaceuticals d.d., priority 2009, dated 2011).
Counter-ions that a name gives are not always drawn.

Conditions: water; printed as 'approximately up to about'

In the case of `Cc1cc2c(s1)Nc1ccccc1N=C2N1CCN(C)CC1` [oxalic acid addition salt of olanzapine], the aqueous solubility is reported as “up to 800 mg/mL”.
